From US20230263822A1, “MODULATION OF FACTOR 11 EXPRESSION” (Ionis Pharmaceuticals, Inc., priority 2008, published 2023)
Like-named read-outs stand apart in the source and are kept apart here. e = 2'-O-(2-methoxyethyl) (MOE); d = 2'-deoxy (DNA)

Experiments:
[1] = mouse, in vivo, sc, 50 mg/kg
[2] = mouse, in vivo, sc, 50 mg/kg; remark: listed apart in the source
[3] = mouse, in vivo, sc, 50 mg/kg; remark: listed apart in the source
[4] = rat, in vivo, sc, 50 mg/kg
[5] = rat, in vivo, sc, 50 mg/kg; remark: listed apart in the source
[6] = rat, in vivo, sc, 50 mg/kg; remark: listed apart in the source

Substance | ALT [1] [IU/L] | AST [1] [IU/L] | Albumin [1] | Bilirubin [1] [mg/dL] | BUN [2] [mg/dL] | Lymphocyte [3] | Neutrophil [3] | Platelets [3] | ALT [4] [IU/L] | AST [4] [IU/L] | Albumin [4] | Bilirubin [4] [mg/dL] | BUN [5] [mg/dL] | Creatinine [5] [mg/dL] | Urine protein/creatinine ratio [5] | HCT [6] [%] | Lymphocyte [6] [%] | Neutrophil [6] [%] | Platelets [6] [nL⁻¹] | RBC [6] [pL⁻¹] | further results
ISIS 445505: 5-8-5 or 6-8-6 MOE microwalk gapmer (Table 44) (antisense CGGCATTGGTGCACAGTTTC; sugars from the 5' end e6 d8 e6, backbone and methylation of C not given here) | 116 | 153 | 3.2 | 0.18 | 29 | 3447 | 818 | 725 | 356 | 243 | 3.6 | 0.15 | 24 | 0.4 | 3.8 | 50 | 87 | 10 | 1089 | 9.1 | HCT [3]: 49%; RBC [3]: 9.6; WBC [3]: 5; hemoglobin [3]: 14.6 g/dL; WBC [6]: 21 nL⁻¹; hemoglobin [6]: 15.0 g/dL; monocytes [6]: 2.5%
ISIS 445504: 5-8-5 or 6-8-6 MOE microwalk gapmer (Table 44) (antisense GGCATTGGTGCACAGTTTCT; sugars from the 5' end e6 d8 e6, backbone and methylation of C not given here) | 71 | 107 | 3.4 | 0.17 | 29 | 3578 | 959 | 826 | 206 | 86 | 3.5 | 0.11 | 26 | 0.4 | 4.3 | 50 | 87 | 10 | 776 | 8.9 | HCT [3]: 49%; RBC [3]: 9.6; WBC [3]: 5; hemoglobin [3]: 14.7 g/dL; WBC [6]: 16 nL⁻¹; hemoglobin [6]: 14.7 g/dL; monocytes [6]: 2.0%
ISIS 445513: 5-8-5 or 6-8-6 MOE microwalk gapmer (Table 44) (antisense GCAGCGGACGGCATTGGTGC; sugars from the 5' end e6 d8 e6, backbone and methylation of C not given here) | 37 | 84 | 3.1 | 0.22 | 27 | 5523 | 959 | 942 | 214 | 91 | 3.5 | 0.15 | 24 | 0.4 | 4.6 | 44 | 82 | 14 | 1051 | 7.8 | WBC [6]: 17 nL⁻¹; hemoglobin [6]: 13.0 g/dL; monocytes [6]: 3.5%
ISIS 445530: 5-8-5 or 6-8-6 MOE microwalk gapmer (Table 44) (antisense GCATTGGTGCACAGTTTC; sugars from the 5' end e5 d8 e5, backbone and methylation of C not given here) | 104 | 136 | 3.2 | 0.18 | 26 | 5488 | 930 | 849 | 116 | 56 | 3.7 | 0.11 | 22 | 0.4 | 4.2 | 50 | 87 | 11 | 1249 | 8.9 | HCT [3]: 50%; RBC [3]: 10.0; WBC [3]: 7; hemoglobin [3]: 15.1 g/dL; WBC [6]: 12 nL⁻¹; hemoglobin [6]: 14.7 g/dL; monocytes [6]: 2.0%
